In patent publication US9481712B2, “Peptidomimetics possessing photo-controlled biological activity” (priority 2013, dated 2016):
Converted amounts (≈) assume the structure as drawn. *1 amine or outer side, *2 acyl side, *3 side chain or, on linkers, in order; H or OH if unused. Where a SMILES comes first, the peptide text is derived from it. Bridges are numbered along the chain shown (N, C = ends). [ ]: non-standard residue; d: D form. X2 = CC12SC(C(=O)NN[*:2])=CC1=C1CCCC1=C1C=C(C(=O)[*:1])SC12C; X1 = Cc1sc(C(=O)NN[*:2])cc1C1=C(c2cc(C(=O)[*:1])sc2C)CCC1; Orn = NCCC[C@H](N)C(=O)O

Columns and labels:
[1] = test system: Staphylococcus epidermidis DSM 1708; type: cell-based
Description: (§1) The antimicrobial activities of GS and its analogues were measured using broth microdilution assay using a standard protocol [Daniel Amsterdam (1996). Susceptibility testing of antimicrobials in liquid media. In: Antibiotics in laboratory medicine, Loman, V., ed., 4th ed. Williams and Wilkins, Baltimore, Md., pp. 52-111]. The peptidomimetic compounds were tested against bacteria strains Escherichia coli DSM 1103, Staphylococcus aureus DSM 1104, Staphylococcus epidermidis DSM 1708, and Staphylococcus xylosus DSM 20267. GS analogues in the “closed” form were prepared in advance by RP-HPLC and stored protecting them from light. The corresponding minimal inhibitory concentrations (MIC) are listed in Table 2, where a small MIC value indicates a high antimicrobial activity, and vice versa.

[2] = test system: Escherichia coli DSM 1103; type: cell-based
Description: as §1

[3] = test system: Staphylococcus xylosus DSM 20267; type: cell-based
Description: as §1

[4] = test system: Staphylococcus aureus DSM 1104; type: cell-based
Description: as §1

erythrocytes = type: cell-based, human; details: pH 7.6
Description: To test the hemolytic activities of GS and its analogues, conserved human blood samples were obtained from Karlsruhe municipal hospital and washed four times in Tris buffer, pH 7.6, at 4° C. Aliquots of the blood cells were incubated with different concentrations of the peptide/peptidomimetics for 30 min at 37° C. and subsequently centrifuged. The absorption of the supernatant at 540 nm gives the extent of hemolysis, relative to 0% as taken from the peptide-free control and 100% after treatment with Triton X-100 (not to interfere with this analysis, the samples with GS analogues in the “closed” form were back-converted to their “open” forms by 30 min exposure to the visible light). The HC50 values, where 50% of the erythrocytes were lysed, were determined from the concentration dependent curves and are listed in Table 3. Small HC50 values indicate a high hemolytic activity, and vice versa. […] This proves by several independent assays that the biological activities of the photo-switchable GS analogues could be controlled by light.

[5] = photo-conversion from "closed" to "open" form by visible light (RP-HPLC); type: physicochemical
Description: The reverse photo-conversion of the peptidomimetic GS-Sw(FP) from the “closed” to the “open” form by visible light was also tested. A solution of peptide in the pink-colored “closed”-form (in a water-acetonitrile mixture, 3:1, 100 μg/ml) was used. The conversion of the peptidomimetic from the “closed”-form to the “open”-form was determined by RP-HPLC (analytical C18 column, linear A:B gradient of 4% B/min, 1.5 ml/min flow rate) after 0.25, 1.5, 5.5, 7.5 min of irradiation by visible light. A bright halogen lamp (250 Watts) was used, and the solutions were placed in 10 cm distance from the light source. The obtained data fitted well to the exponential equation y=[…], where y is a conversion of “closed” form into the “open” form, t is the time of the illumination and r is the half-conversion time. […] The conversion from “closed” to “open” could be achieved to 100%.

Staphylococcus xylosus = experiment: photo-activation on bacterial lawn (FIG. 5); type: cell-based; details: 6 or 8 μg/ml "closed" form converted 60% or 80% by visible light; 37° C. for 18 hours
Description: The compound was applied to the bacterial lawn at different concentrations and then irradiated by visible light. Some geometrical shapes were cut out from a paper covering the entire Petri dish, such that the photo-switchable compound was converted into the “open” form only in those small areas exposed to the light. […] One further experiment aimed at finding these optimal conditions for treatment with the peptidomimetic GS-SwFP is illustrated in FIG. 5.

[6] = 250 W halogen lamp, 10 cm, water-acetonitrile 3:1, 100 μg/ml, from exponential fit

| SMILES | minimal inhibitory concentration (MIC) [1] [µg/mL] | minimal inhibitory concentration (MIC) [2] [µg/mL] | minimal inhibitory concentration (MIC) [3] [µg/mL] | minimal inhibitory concentration (MIC) [4] [µg/mL] | H50 (50% of hemolysis) (erythrocytes) | achievable conversion from "closed" to "open" [5] [%] | time of illumination to achieve 60% transformation "closed" to "open" [5, 6] [min] | time of illumination to achieve 80% conversion "closed" to "open" [5, 6] [min] | antimicrobial effect on bacterial lawn after activation to "open" form (Staphylococcus xylosus) |
| --- | --- | --- | --- | --- | --- | --- | --- | --- | --- |
| CC(C)C[C@@H]1NC(=O)[C@H](CCCN)NC(=O)[C@H](C(C)C)NC(=O)[C@@H]2CCCN2C(=O)[C@@H](Cc2ccccc2)NC(=O)[C@H](CC(C)C)NC(=O)[C@H](CCCN)NC(=O)[C@H](C(C)C)NC(=O)[C@@H]2CCCN2C(=O)[C@@H](Cc2ccccc2)NC1=O [GS, [PVOL^DFPVOL^DF]cyclo, reference compound] (cyclo(L[dF]PV[Orn]L[dF]PV[Orn])) | 2 (≈ 1.75 µM) | 8 (≈ 7.01 µM) | 1 (≈ 0.876 µM) | 2 (≈ 1.75 µM) | 12 µg/mL | – | – | – | – |
| Cc1sc2cc1C1=C(CCC1)c1cc(sc1C)C(=O)N[C@@H](C(C)C)C(=O)N[C@@H](CCCN)C(=O)N[C@@H](CC(C)C)C(=O)N[C@H](Cc1ccccc1)C(=O)N1CCC[C@H]1C(=O)N[C@@H](C(C)C)C(=O)N[C@@H](CCCN)C(=O)N[C@@H](CC(C)C)C(=O)NNC2=O [GS-Sw(FP), cyclo(^DFPVOL-1b-VOL)] | – | – | – | – | – | 100 | 7.5 | 12.5 | pronounced antimicrobial activity |
| CC(C)C[C@@H]1NC(=O)[C@H](CCCN)NC(=O)[C@H](C(C)C)NC(=O)[C@@H]2CCCN2C(=O)[C@@H](Cc2ccccc2)NC(=O)[C@H](CC(C)C)NC(=O)[C@H](CCCN)NC(=O)[C@H](C(C)C)NC(=O)C2=CC3=C4CCCC4=C4C=C(SC4(C)C3(C)S2)C(=O)NNC1=O (stereo partly drawn) [GS-Sw(FP), “closed”, cyclo(^DFPVOL-1b-VOL)] | 64 (≈ 51.5 µM) | >128 | 32 (≈ 25.8 µM) | 32 (≈ 25.8 µM) | 72 µg/mL | – | – | – | – |
| Cc1sc2cc1C1=C(CCC1)c1cc(sc1C)C(=O)N[C@@H](C(C)C)C(=O)N[C@@H](CCCN)C(=O)N[C@@H](CC(C)C)C(=O)N[C@H](Cc1ccccc1)C(=O)N1CCC[C@H]1C(=O)N[C@@H](C(C)C)C(=O)N[C@@H](CCCN)C(=O)N[C@@H](CC(C)C)C(=O)NNC2=O [GS-Sw(FP), “open”, cyclo(^DFPVOL-1b-VOL)] | 8 (≈ 6.44 µM) | 128 (≈ 103 µM) | 8 (≈ 6.44 µM) | 4 (≈ 3.22 µM) | 6.5 µg/mL | – | – | – | – |
| CC(C)C[C@@H]1NC(=O)[C@H](CCCN)NC(=O)[C@H](C(C)C)NC(=O)[C@@H]2CCCN2C(=O)C2=CC3=C4CCCC4=C4C=C(SC4(C)C3(C)S2)C(=O)NNC(=O)[C@H](CCCN)NC(=O)[C@H](C(C)C)NC(=O)[C@@H]2CCCN2C(=O)[C@@H](Cc2ccccc2)NC1=O (stereo partly drawn) [GS-Sw(LF), “closed”, cyclo(^DFPVO-1b-PVOL)] (PV[Orn]L[dF]PV[Orn]; linker N-C via X2) | 128 (≈ 104 µM) | 64 (≈ 52.2 µM) | 128 (≈ 104 µM) | 128 (≈ 104 µM) | >>128 μg/ml | – | – | – | – |
| Cc1sc2cc1C1=C(CCC1)c1cc(sc1C)C(=O)N1CCC[C@H]1C(=O)N[C@@H](C(C)C)C(=O)N[C@@H](CCCN)C(=O)N[C@@H](CC(C)C)C(=O)N[C@H](Cc1ccccc1)C(=O)N1CCC[C@H]1C(=O)N[C@@H](C(C)C)C(=O)N[C@@H](CCCN)C(=O)NNC2=O [GS-Sw(LF), “open”, cyclo(^DFPVO-1b-PVOL)] (PV[Orn]L[dF]PV[Orn]; linker N-C via X1) | 16 (≈ 13.1 µM) | >128 | 8 (≈ 6.53 µM) | 8 (≈ 6.53 µM) | 47 µg/mL | – | – | – | – |
| CC(C)C[C@@H]1NC(=O)[C@H](CCCN)NC(=O)[C@H](C(C)C)NC(=O)[C@@H]2CCCN2C(=O)[C@@H](Cc2ccccc2)NC(=O)[C@H](CC(C)C)NC(=O)[C@H](CCCN)NC(=O)C2=CC3=C4CCCC4=C4C=C(SC4(C)C3(C)S2)C(=O)NNC(=O)[C@@H](Cc2ccccc2)NC1=O (stereo partly drawn) [GS-Sw(PV), “closed”, cyclo(^DFPVOL^DF-1b-OL)] ([Orn]L[dF]PV[Orn]L[dF]; linker N-C via X2) | 32 (≈ 24.8 µM) | >128 | 32 (≈ 24.8 µM) | 16 (≈ 12.4 µM) | 58 µg/mL | – | – | – | – |
| Cc1sc2cc1C1=C(CCC1)c1cc(sc1C)C(=O)N[C@@H](CCCN)C(=O)N[C@@H](CC(C)C)C(=O)N[C@H](Cc1ccccc1)C(=O)N1CCC[C@H]1C(=O)N[C@@H](C(C)C)C(=O)N[C@@H](CCCN)C(=O)N[C@@H](CC(C)C)C(=O)N[C@H](Cc1ccccc1)C(=O)NNC2=O [GS-Sw(PV), “open”, cyclo(^DFPVOL^DF-1b-OL)] ([Orn]L[dF]PV[Orn]L[dF]; linker N-C via X1) | 4 (≈ 3.1 µM) | >128 | 4 (≈ 3.1 µM) | 4 (≈ 3.1 µM) | 6 µg/mL | – | – | – | – |
